# Reference: US12037324B2, “Biarylmethyl heterocycles” (Université de Montréal, priority 2016, dated 2024)
# Key:
# Format in all cases: cell-based
# AGTR1 [1] = target: T1, AGTR1 (Homo sapiens, UniProt P30556); experiment: DiscoveRx β-arrestin2 recruitment assay (enzyme complementation, Pathunter CHO-K1 AGTR1 β-arrestin cell line); details: DiscoveRx β-arrestin2 recruitment; for DiscoveRx β-arrestin2 Ymax (%): maximal response
# T1 construct: host or cells: Pathunter CHO-K1 AGTR1 β-arrestin cell line (CHO-K1)
# T1 sequence (P30556 1-359): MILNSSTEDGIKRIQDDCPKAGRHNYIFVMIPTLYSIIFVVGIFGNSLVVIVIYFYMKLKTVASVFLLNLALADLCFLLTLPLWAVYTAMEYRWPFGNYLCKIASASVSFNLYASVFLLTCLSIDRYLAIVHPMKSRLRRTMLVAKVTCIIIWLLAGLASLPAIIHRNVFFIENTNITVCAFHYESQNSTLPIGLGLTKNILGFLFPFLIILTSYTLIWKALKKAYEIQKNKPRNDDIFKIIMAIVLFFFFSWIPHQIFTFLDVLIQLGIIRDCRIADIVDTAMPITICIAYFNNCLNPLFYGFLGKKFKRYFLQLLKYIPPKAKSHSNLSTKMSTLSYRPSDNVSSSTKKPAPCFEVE
# Protocol: In one aspect of the invention, signaling bias of compounds was assessed by comparing the relative activity of compounds to activate both the β-arrestin and Gq signaling pathways. In order to confirm signaling bias, compounds were studied in two different assay formats. DiscoveRx β-arrestin2 Recruitment and IP1 Assays β-arrestin2 recruitment to activated receptors can be assessed using an enzyme complementation method (Zhao, Jones et al. 2008). […] Cells (5000/well) were plated into 1536 well plates (Cellocoat plates, Greiner Bio One, Monroe, NC) 14-16 hours before each experiment in 20 μl DMEM/F12 medium (Thermo-Fisher Scientific, Carlsbad, CA) containing heat-inactivated 1% fetal bovine serum. Subsequently, the compounds of interest were added at varying concentrations to the wells in a volume of 200 nl and the cells incubated for 90 min at 37° C. The detection reagent (10 μl) was added to each well and the plates incubated at room temperature for 1 hour before measurement of chemiluminescence using an EnVision Multilabel Reader (Perkin-Elmer, Waltham, MA). The data are processed using Toolset for Runmaster QCMulti. Concentration-response curves are fitted and EC50s (agonist mode) and IC50s (antagonist mode) estimated using a 4-parameter logistic equation. Compound activities are reported as a relative percentage to the maximal effect of All in the assays.
# AGTR1 [2] = target: T1, AGTR1; experiment: DiscoveRx IP1 accumulation assay (HTRF), agonist mode, Pathunter CHO-K1 AGTR1 β-arrestin cell line; details: for EC50: read-out: IP-1 EC50
# Protocol: In one aspect of the invention, signaling bias of compounds was assessed by comparing the relative activity of compounds to activate both the β-arrestin and Gq signaling pathways. In order to confirm signaling bias, compounds were studied in two different assay formats.
# DiscoveRx β-arrestin2 Recruitment and IP1 Assays
# Gq activation can be assessed by measuring the accumulation of inositol phosphates (e.g. IP3, IP1) that are liberated following activation of phospholipase C by Gq (Thomsen, Frazer et al. 2005). In the current invention we have utilized the DiscoveRx Pathunter CHO-K1 AGTR1 β-arrestin cell line to also measure IP1 accumulation in response to compounds. IP1 accumulation was measured in both agonist and antagonist modes. In agonist mode, cells are plated as above 14-16 hours before the experiment. The medium is then removed and compounds at varying concentrations added in a final volume of 20 μl. The cells are incubated at 37° C. for 90 min. IP1 accumulation detected using a commercial HTRF assay according to manufacturer's instructions (Cisbio, Bedford, MA). Specifically, 4 μl of D2-conjugate solution (diluted 1:20 in Cisbio HTRF assay buffer) is added to each well, followed by the addition of 4 μl of anti-IP1 cryptate diluted 1:20 in HTRF assay buffer and the plates incubated for 20 min at room temperature. 14 μl from each well is measured using an Envision multi-label reader and data processed using Toolset for Runmaster QCMulti. Concentration-response curves are fitted and EC50s (agonist mode) and IC50s (antagonist mode) estimated using a 4-parameter logistic equation. Compound activities are reported as a relative percentage to the maximal effect of All in the assays.
# hAT1R = target: T2, hAT1R (Homo sapiens, UniProt P30556); experiment: BRET β-arrestin2 biosensor assay, higher receptor expression (hAT1R 5 ng/well), HEK293 cells; details: for EC50: High AT1R Expression
# T2 sequence (P30556 1-359): T1 sequence (P30556 1-359)
compound,measurement,setting,value
"CCc1nc2c(C)cc(C)nc2n1Cc1ccc(-c2cc(C3CCCO3)ccc2-c2nn[nH]n2)cc1 (single isomer, unassigned) [Example 73, 2-ethyl-5,7-dimethyl-3-((5′-(tetrahydrofuran-2-yl)-2′-(2H-tetrazol-5-yl)-[1,1′-biphenyl]-4-yl)methyl)-3H-imidazo[4,5-b]pyridine]",EC50,AGTR1 [1],108 nM
same,DiscoveRx β-arrestin2 Ymax (%),AGTR1 [1],26.4%
same,IP-1 Ymax (%),AGTR1 [2],11.6%
same,EC50,AGTR1 [2],5940 nM
"CCc1nc2c(C)cc(C)nc2n1Cc1ccc(-c2cc(C3CCCCN3)ccc2-c2nn[nH]n2)cc1 (single isomer, unassigned) [Example 76, 2-ethyl-5,7-dimethyl-3-((5′-(piperidin-2-yl)-2′-(2H-tetrazol-5-yl)-[1,1′-biphenyl]-4-yl)methyl)-3H-imidazo[4,5-b]pyridine]",EC50,AGTR1 [1],840 nM
same,DiscoveRx β-arrestin2 Ymax (%),AGTR1 [1],13.2%
same,EC50,AGTR1 [2],> 100000 nM
"CCCC1=NC2(CCOC2)C(=O)N1Cc1ccc(-c2cc(-c3ccccc3)ccc2-c2nn[nH]n2)cc1 (single isomer, unassigned) [Example 158, 3-((6′-(2H-tetrazol-5-yl)-[1,1′:3′,1″-terphenyl]-4-yl)methyl)-2-propyl-7-oxa-1,3-diazaspiro[4.4]non-1-en-4-one]",EC50,AGTR1 [1],191 nM
same,DiscoveRx β-arrestin2 Ymax (%),AGTR1 [1],41.6%
same,IP-1 Ymax (%),AGTR1 [2],8.6%
same,EC50,AGTR1 [2],214 nM
CCc1nc2c(C)cc(C)nc2n1Cc1ccc(-c2cc(-c3ccc(N(C)C)cc3)ccc2-c2nn[nH]n2)cc1 [Example 15],EC50,AGTR1 [1],22.6 nM
same,DiscoveRx β-arrestin2 Ymax (%),AGTR1 [1],14.9%
same,IP-1 Ymax (%),AGTR1 [2],2.4%
same,EC50,AGTR1 [2],21.7 nM
CCc1nc2c(C)cc(C)nc2n1Cc1ccc(-c2cc(-c3ccc4c(ccn4C)c3)ccc2-c2nn[nH]n2)cc1 [Example 17],EC50,AGTR1 [1],15.7 nM
same,DiscoveRx β-arrestin2 Ymax (%),AGTR1 [1],11.9%
same,IP-1 Ymax (%),AGTR1 [2],3.3%
same,EC50,AGTR1 [2],8.7 nM
CCc1nc2c(C)cc(C)nc2n1Cc1ccc(-c2cc(-c3ccc(C)cc3)ccc2-c2nn[nH]n2)cc1 [Example 18],EC50,AGTR1 [1],140 nM
same,DiscoveRx β-arrestin2 Ymax (%),AGTR1 [1],54.2%
same,IP-1 Ymax (%),AGTR1 [2],15.4%
same,EC50,AGTR1 [2],499 nM
"CCc1nc2c(C)cc(C)nc2n1Cc1ccc(-c2cc(Nc3ccc(F)cc3)ccc2-c2nn[nH]n2)cc1 [Example 26, 4′-((2-ethyl-5,7-dimethyl-3H-imidazo[4,5-b]pyridin-3-yl)methyl)-N-(4-fluorophenyl)-6-(2H-tetrazol-5-yl)-[1,1′-biphenyl]-3-amine]",EC50,AGTR1 [1],10.8 nM
same,DiscoveRx β-arrestin2 Ymax (%),AGTR1 [1],25.0%
same,IP-1 Ymax (%),AGTR1 [2],7.5%
same,EC50,AGTR1 [2],24.2 nM
"CCc1nc2c(C)cc(C)nc2n1Cc1ccc(-c2cc(N3CCCC3=O)ccc2-c2nn[nH]n2)cc1 [Example 28, 1-(4′-((2-ethyl-5,7-dimethyl-3H-imidazo[4,5-b]pyridin-3-yl)methyl)-6-(2H-tetrazol-5-yl)-[1,1′-biphenyl]-3-yl)pyrrolidin-2-one]",EC50,AGTR1 [1],322 nM
same,DiscoveRx β-arrestin2 Ymax (%),AGTR1 [1],11.9%
same,IP-1 Ymax (%),AGTR1 [2],2.3%
same,EC50,AGTR1 [2],3780 nM
CCc1nc2c(C)cc(C)nc2n1Cc1ccc(-c2cc(-c3ccsc3)ccc2-c2nn[nH]n2)cc1 [Example 55],EC50,AGTR1 [1],9.3 nM
same,DiscoveRx β-arrestin2 Ymax (%),AGTR1 [1],44.9%
same,IP-1 Ymax (%),AGTR1 [2],6.8%
same,EC50,AGTR1 [2],26.8 nM
CCCCC1=NC2(CCCC2)C(=O)N1Cc1ccc(-c2cc(-c3cncc(OC)c3)ccc2-c2nn[nH]n2)cc1 [Example 132],EC50,AGTR1 [1],87.2 nM
same,DiscoveRx β-arrestin2 Ymax (%),AGTR1 [1],14.1%
same,BRET β-Arrestin2 High AT1R Expression Ymax (%),hAT1R,22.0%
same,EC50,hAT1R,496 nM
"CCCCc1nc(Cl)c(C(=O)O)n1Cc1ccc(-c2cc(N3CCc4ccccc43)ccc2-c2noc(=O)[nH]2)cc1 [Example 406, 2-butyl-4-chloro-1-((5′-(indolin-1-yl)-2′-(5-oxo-4,5-dihydro-1,2,4-oxadiazol-3-yl)-[1,1′-biphenyl]-4-yl)methyl)-1H-imidazole-5-carboxylic acid]",EC50,AGTR1 [1],9 nM
same,DiscoveRx β-arrestin2 Ymax (%),AGTR1 [1],33.9%
same,BRET β-Arrestin2 High AT1R Expression Ymax (%),hAT1R,97.5%
same,EC50,hAT1R,10.6 nM
